In patent EP0323147A2, “1-Aralkyl-1,2-dihydropyrimidine-2-thiones” (SMITHKLINE BECKMAN CORPORATION, priority 1987, dated 1989):
Marks after values point to notes of the source that are not given here. Values belong to the compound of their own block, whether it stands above or below them.

Experiments:
[1] = literature, Teresawa et al., Japan Cir. J. 35, 339 (1971); cited from earlier work
DBH = molecular target: T1, DBH (Homo sapiens, UniProt P09172); assay: in vitro DBH inhibition, conversion of tyramine to octopamine in the presence of DBH; assay type: biochemical; conditions: for percent inhibition: at 10⁻⁵ M compound concentration, IC₅₀ not determined
T1 sequence (P09172 1-617): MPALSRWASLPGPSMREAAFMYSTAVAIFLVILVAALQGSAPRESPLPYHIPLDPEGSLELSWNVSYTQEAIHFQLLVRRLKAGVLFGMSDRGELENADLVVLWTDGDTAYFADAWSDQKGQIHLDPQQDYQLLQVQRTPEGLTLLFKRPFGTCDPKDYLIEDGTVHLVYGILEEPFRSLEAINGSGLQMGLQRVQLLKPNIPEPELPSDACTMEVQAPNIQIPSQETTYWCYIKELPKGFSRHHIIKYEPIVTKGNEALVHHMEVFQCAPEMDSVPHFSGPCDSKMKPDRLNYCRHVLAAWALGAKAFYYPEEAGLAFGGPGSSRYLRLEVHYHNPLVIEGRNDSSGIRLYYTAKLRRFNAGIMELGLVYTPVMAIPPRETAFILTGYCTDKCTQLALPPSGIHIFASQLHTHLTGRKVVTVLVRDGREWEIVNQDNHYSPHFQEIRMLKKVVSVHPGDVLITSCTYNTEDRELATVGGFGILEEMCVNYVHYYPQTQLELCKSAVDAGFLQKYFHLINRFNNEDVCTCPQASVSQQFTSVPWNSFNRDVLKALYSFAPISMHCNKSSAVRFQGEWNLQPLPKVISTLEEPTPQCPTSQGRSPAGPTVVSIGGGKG
Description: Because the compounds of structure (I) inhibit DBH activity they have therapeutic value as diuretic, natriuretic, cardiotonic, antihypertensive, and vasodilatoragents, as well as antiulcerogenic and anti-Parkinson agents. Listed in Table I are the compounds of the invention that were tested for in vitro DBH inhibition by a standard procedure for assaying conversion of tyramine to octopamine in the presence of DBH. J.J. Pisano, et al., Biochim. Biophys. Acta, 43, 566-568 (1960). Octopamine was assayed following sodium periodate oxidation to p-hydroxy-benzaldehyde by measuring spectrophotometric absorbance at 330 nm. In Table I, inhibition is given in micromolar concentration of compound at which DBH activity was halved (IC₅₀). […]

[2] = test system: spontaneously hypertensive rats; assay: mean arterial blood pressure in spontaneously hypertensive rats after oral dosing; assay type: in vivo; conditions: 50 mg/kg orally, compared to vehicle-treated controls
Description: Further, spontaneously hypertensive rats were treated with a suspension or solution of 1-(3,5-fluorobenzyl)-1,2,-dihydropyrimidine-2-thione hydrochloride at a dose of 50 mg/kg orally and mean arterial blood pressure was monitored for 260 minutes using indwelling cannulae in the tail arteries. […] Maximal blood pressure reduction was approximately 25 to 30 mm Hg.

SMILES: CCCCc1ccc(C(=O)O)nc1 [fusaric acid]
toxic effects [1]: hepatotoxic

percent inhibition (DBH): 5%^a
SMILES: S=c1ncccn1Cc1ccccc1 [1-benzyl-1,2-dihydropyrimidine-2-thione, 1-Benzyl-1,2-dihydropyrimidine-2 thione]

IC50 (DBH; concentration of compound at which DBH activity was halved, read-out: DBH IC₅₀): 2800 nM
SMILES: Cl.Fc1cc(F)cc(Cn2cccnc2=S)c1 [1-(3,5-Difluorobenzyl)-1,2-dihydropyrimidine 2-thione Hydrochloride]
time after treatment to significant blood pressure reductions [2]: ≤ 30 min

percent inhibition (DBH): 15%^a
SMILES: Cl.Fc1cccc(Cn2cccnc2=S)c1 [1-(3-Fluorobenzyl)-1,2-dihydropyrimidine 2-thione Hydrochloride]
